# Assays:
# Experiment in all cases: Expanded lung cancer cell line proliferation assay
# Assay type in all cases: cell-based
# [1] = tested on: A549; settings: Homo sapiens; A549, 72 h, average of PrestoBlue and Cell Titer Glo; AKR1C3 3017.9 TPM; read-out: Absolute Qualified AC50
# From the text: (§1) Cellular Proliferation Assay to Assess Compound Activity in an Expanded Panel of 57 NRF2 Pathway Mutant and Wild Type Lung Cancer Cell Lines.
# (§2) Both the PrestoBlue Cell Viability Reagent and Cell Titer Glo were multiplexed together as the final assay readout. PrestoBlue is a cell permeable resazurin-based solution that utilizes the reducing power of living cells to quantitatively measure their proliferation. Cell Titer Glo measures the amount of ATP present, an indicator of metabolically active cells.
# (§3) Expanded Lung Cancer Cell Line Proliferation Assay Outline, Analysis and Profiling Results
# (§4) Cells were seeded into 384 well assay plates (Greiner Bio-One, Catalog #781080) using the Thermo Scientific Matrix WellMate microplate dispenser and Thermo Scientific Matrix WellMate small bore disposable tubing cartridges (Catalog #201-30002) in 30 μl of growth media (RPMI-1640 supplemented with 10% fetal bovine serum and 1% penicillin/streptomycin) per well (1000 to 2000 cells/well depending on doubling time). Following cell plating, assay plates were placed into tissue culture incubator at 37° C./5% CO2 overnight. The next day one assay plate for each cell line was used for a Day 0 Cell Titer Glo and PrestoBlue readout. 3 μl of PrestoBlue Cell Viability Reagent (Thermo Scientific, Catalog #A13262) was added to each well and then assay plates were incubated at 37° C./5% CO2 for 30 minutes prior to fluorescence readout on the EnVision 2105 multimode plate reader (Perkin Elmer). Following the PrestoBlue readout 18 μl of Cell Titer Glo (Promega, Catalog #G7572) was then added to each well, allowing plates to incubate at room temperature for 10 minutes prior to luminescence readout on the EnVision. Compound was then added to the remaining assay plates (each cell line run in triplicates) using the Labcyte Inc Echo 555 acoustic liquid handler. Compounds were arrayed into a Labcyte Inc Echo qualified 384 well LDV microplate (Cat #LP-0200-GNF10). Compounds were serially diluted 1:3.16 to generate an 8 point dose response for a final top concentration of 1 μM. DMSO (0.3%) was used as the neutral control (NC) and MG132 (30 μM) was used as the active control (AC). 90 nl of compounds were added to 30 μl of cells using the Labcyte Inc Echo 555 acoustic liquid handler for a final DMSO assay concentration of 0.3%. Following compound addition, assay plates were spun down in a tabletop centrifuge at 500 rpm for 1 minute and then placed into tissue culture incubator at 37° C./5% CO2 for 72 h. Following the 72 h incubation, all assay plates were readout using PrestoBlue and Cell Titer Glo using the same conditions previously described for the Day 0 readout. The Day 0 readout (untreated cells) was used to compare to the 72 h DMSO treated samples on each assay plate as a way of tracking each cell line's fold growth. NC1 control based normalization was used for data analysis in Helios, which incorporates the DMSO neutral control (NC) and MG132 active control (AC) for generating dose response curves that are then used to calculate the Absolute Qualified AC50 calls for each compound and cell line.
# (§5) NC1 normalization calculation model: NC1: xn=±(x−NC)/(AC−NC)
# (§6) +/− is set by the inhibition type parameter setting where NC and AC are averages (mean or median) over the corresponding NC and AC well values. The Qualified Absolute AC50 values for Compound 36 and Compound 40 are listed in the table below and are represented as the average activity in both the PrestoBlue and Cell Titer Glo assay readouts.
# (§7) Absolute Qualified AC50 Values Listed Below are a Representation of Each Compounds' Average Activity in Both the PrestoBlue and Cell Titer Glo Assay Readouts.
# [2] = tested on: DMS-53; settings: Homo sapiens; DMS-53, 72 h, average of PrestoBlue and Cell Titer Glo; AKR1C3 59.7 TPM; read-out: Absolute Qualified AC50
# From the text: as §1, §2, §3, §4, §5, §6, §7
# [3] = tested on: HCC78; settings: Homo sapiens; HCC78, 72 h, average of PrestoBlue and Cell Titer Glo; AKR1C3 3 TPM; read-out: Absolute Qualified AC50
# From the text: as §1, §2, §3, §4, §5, §6, §7
# [4] = tested on: HCC95; settings: Homo sapiens; HCC95, 72 h, average of PrestoBlue and Cell Titer Glo; AKR1C3 939.1 TPM; read-out: Absolute Qualified AC50
# From the text: as §1, §2, §3, §4, §5, §6, §7
# [5] = tested on: LCLC-97TM1; settings: Homo sapiens; LCLC-97TM1, 72 h, average of PrestoBlue and Cell Titer Glo; AKR1C3 1.9 TPM; read-out: Absolute Qualified AC50
# From the text: as §1, §2, §3, §4, §5, §6, §7
# [6] = tested on: NCI-H1581; settings: Homo sapiens; NCI-H1581, 72 h, average of PrestoBlue and Cell Titer Glo; AKR1C3 1.9 TPM; read-out: Absolute Qualified AC50
# From the text: as §1, §2, §3, §4, §5, §6, §7
# [7] = tested on: NCI-H2023; settings: NCI-H2023, 72 h, average of PrestoBlue and Cell Titer Glo; AKR1C3 1424.8 TPM; read-out: Absolute Qualified AC50
# From the text: as §1, §2, §3, §4, §5, §6, §7
# [8] = tested on: NCI-H2030; settings: Homo sapiens; NCI-H2030, 72 h, average of PrestoBlue and Cell Titer Glo; AKR1C3 232.7 TPM; read-out: Absolute Qualified AC50
# From the text: as §1, §2, §3, §4, §5, §6, §7
# [9] = tested on: NCI-H322; settings: NCI-H322, 72 h, average of PrestoBlue and Cell Titer Glo; AKR1C3 21 TPM; read-out: Absolute Qualified AC50
# From the text: as §1, §2, §3, §4, §5, §6, §7
# [10] = tested on: NCI-H524; settings: Homo sapiens; NCI-H524, 72 h, average of PrestoBlue and Cell Titer Glo; AKR1C3 0.8 TPM; read-out: Absolute Qualified AC50
# From the text: as §1, §2, §3, §4, §5, §6, §7
# [11] = tested on: RERF-LC-AI; settings: 72 h, average of PrestoBlue and Cell Titer Glo, AKR1C3 7.6 TPM, read-out: Absolute Qualified AC50
# From the text: as §1, §2, §3, §4, §5, §6, §7
# [12] = tested on: RERF-LC-MS; settings: 72 h, average of PrestoBlue and Cell Titer Glo, AKR1C3 221.6 TPM, read-out: Absolute Qualified AC50
# From the text: as §1, §2, §3, §4, §5, §6, §7
# [13] = tested on: SW1271; settings: SW1271, 72 h, average of PrestoBlue and Cell Titer Glo; AKR1C3 2.4 TPM; read-out: Absolute Qualified AC50
# From the text: as §1, §2, §3, §4, §5, §6, §7
# [14] = tested on: VMRC-LCD; settings: 72 h, average of PrestoBlue and Cell Titer Glo, AKR1C3 expression: no data available, read-out: Absolute Qualified AC50
# From the text: as §1, §2, §3, §4, §5, §6, §7
SMILES,AC50 [1] [nM],AC50 [2] [nM],AC50 [3] [nM],AC50 [4] [nM],AC50 [5] [nM],AC50 [6] [nM],AC50 [7] [nM],AC50 [8] [nM],AC50 [9] [nM],AC50 [10] [nM],AC50 [11] [nM],AC50 [12] [nM],AC50 [13] [nM],AC50 [14] [nM]
"CN1c2ccc(F)cc2C(=O)CC12CCN(C(=O)NCc1ccc(F)c(NCCO)c1)CC2 [Example 36, 6′-fluoro-N-(4-fluoro-3-((2-hydroxyethyl)amino)benzyl)-1′-methyl-4′-oxo-3′,4′-dihydro-1′H-spiro[piperidine-4,2′-quinoline]-1-carboxamide]",301,> 1000,> 1000,287,> 1000,> 1000,347,648,> 1000,> 1000,> 1000,> 1000,> 1000,474
O=C1CC2(CCN(C(=O)NCc3ccc(F)cc3)CC2)Nc2ccc(F)cc21 [Example 40],56,> 1000,> 1000,69,> 1000,> 1000,63,364,> 1000,> 1000,> 1000,> 1000,> 1000,330

# Reference: patent US11970497B2, “Tricyclic AKR1C3 dependent KARS inhibitors” (Novartis AG, priority 2019, dated 2024)
